# According to patent US20100003246A1, “Novel heterocyclic compounds and uses therof” (priority 2008, published 2010):
# Legend:
# Malme3M cells = assay: Cell Titer-Glo cell viability assay, Malme3M; assay type: cell-based; conditions: Homo sapiens, Malme-3M, 120 h; Melanoma cell line Malme3M; 5 days compound incubation; 1000 cells/well
# Experimental: (§1) The Cell Titer-Glo® assay (Promega) was used to measure cell viability. Cells were plated into 96-well black walled tissue culture plates in complete growth media. The plates were then incubated under standard growth conditions of 37° C. and 5% CO2 until the cells had attached to the plates (3-6 hours), then compounds were added to the cells. Compounds were serially diluted in DMSO using 3-fold dilutions and then diluted in complete media before being added to the cells (final DMSO concentration on cells was 0.1-0.2%).
# (§2) After compound incubation, the cell plates were equilibrated to room temperature, culture media was removed, and 200 uL of Cell Titer-Glo® reagent mix was added to each well (1:1 mixture of Cell Titer-Glo® reagent and complete growth media, equilibrated to room temperature). The plates were shaken for 5-10 minutes, then sealed and luminescence was measured (using Trilux plate reader, Perkin Elmer).
# (§3) Analysis of data was done by subtracting the background luminescence value from each data point, then determining the percent inhibition of total growth (as determined by the values for DMSO-treated wells).
# (§4) To determine the EC50 for each compound, the data were fit using the Levenburg Marquardt algorithm, represented in the XLfit software as y=A+((B−A)/(1+((C/x)̂D))), the four parameter dose response model 205, where A is the minimum Y value, B is the maximum Y value, C is the Log IC50 and D is the slope.
# A375 cells = assay: Cell Titer-Glo cell viability assay, A375; assay type: cell-based; conditions: Homo sapiens, A-375, 72 h; Melanoma cell line A375; 3 days compound incubation; 1000 cells/well
# Experimental: as §1, §2, §3, §4
# Capan1 cells = assay: Cell Titer-Glo cell viability assay, Capan1; assay type: cell-based; conditions: Homo sapiens, CAPAN-1, 120 h; Pancreatic cell line Capan1; 5 days compound incubation; 2000 cells/well
# Experimental: as §1, §2, §3, §4
# SU86.86 cells = assay: Cell Titer-Glo cell viability assay, SU86.86; assay type: cell-based; conditions: Homo sapiens, SU.86.86, 120 h; Pancreatic cell line SU86.86; 5 days compound incubation; 1000 cells/well
# Experimental: as §1, §2, §3, §4
# G361 cells = assay: Cell Titer-Glo cell viability assay, G361; assay type: cell-based; conditions: Homo sapiens, G-361, 96 h; Melanoma cell line G361; 4 days compound incubation; 1000 cells/well
# Experimental: as §1, §2, §3, §4
# PC3MM cells = assay: Cell Titer-Glo cell viability assay, PC3MM; assay type: cell-based; conditions: 120 h; Prostate cell line PC3MM; 5 days compound incubation; 1500 cells/well
# Experimental: as §1, §2
# Analysis of data was done by subtracting the background luminescence value from each data point, then determining the percent inhibition of total growth (as determined by the values for DMSO-treated wells). […]
# b-Raf(V600E) = target: T1, b-Raf(V600E) (Homo sapiens, UniProt P15056, V600E); assay: Raf/Mek Amplified Luminescence Proximity Homogeneous Assay (Alpha Screen), b-Raf(V600E); assay type: biochemical; conditions: mutant b-Raf(V600E), read-out: mut-b-RAF (IC50 in uM)
# T1 construct: made in house
# How it was run: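 Active b-Raf(V600E) (~4 pM) pre-incubated 60 min at room temperature with compound and kinase-dead biotinylated Mek (~10 nM) in Tris pH 7.5, MgCl2, BSA, DTT; ATP-started reaction ran 3 h, EDTA-stopped. Phospho-MEK detected by anti-p-MEK AlphaScreen luminescence; IC50 by non-linear regression.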
# T1 sequence (P15056 whole entry V600E): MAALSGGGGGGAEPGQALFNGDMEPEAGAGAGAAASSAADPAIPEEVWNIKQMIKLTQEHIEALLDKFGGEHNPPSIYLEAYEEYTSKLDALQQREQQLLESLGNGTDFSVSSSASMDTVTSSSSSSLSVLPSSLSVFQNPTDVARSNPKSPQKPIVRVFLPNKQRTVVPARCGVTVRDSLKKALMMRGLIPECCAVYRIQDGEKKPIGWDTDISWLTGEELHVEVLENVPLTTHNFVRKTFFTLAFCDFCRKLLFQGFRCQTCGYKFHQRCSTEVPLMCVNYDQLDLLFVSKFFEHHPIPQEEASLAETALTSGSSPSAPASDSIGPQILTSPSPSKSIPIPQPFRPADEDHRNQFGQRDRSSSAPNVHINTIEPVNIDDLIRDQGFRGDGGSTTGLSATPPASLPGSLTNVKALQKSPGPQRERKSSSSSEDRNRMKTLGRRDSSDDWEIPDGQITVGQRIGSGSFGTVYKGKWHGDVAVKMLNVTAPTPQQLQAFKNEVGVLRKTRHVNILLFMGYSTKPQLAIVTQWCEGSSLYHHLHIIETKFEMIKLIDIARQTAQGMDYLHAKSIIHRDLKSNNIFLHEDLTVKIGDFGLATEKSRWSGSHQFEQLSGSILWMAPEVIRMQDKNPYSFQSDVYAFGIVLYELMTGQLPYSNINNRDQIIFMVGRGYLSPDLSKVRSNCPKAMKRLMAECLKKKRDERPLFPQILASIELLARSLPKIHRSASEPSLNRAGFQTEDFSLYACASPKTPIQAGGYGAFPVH
IC50 (b-Raf(V600E)),Structure (SMILES),also measured
,"COc1cc(-c2[nH]c(-c3ccccc3)nc2-c2ccncc2)cnc1N [Compound 1, 3-methoxy-5-(2-phenyl-4-(pyridin-4-yl)-1H-imidazol-5-yl)pyridin-2-amine]",EC50 (Malme3M cells): 429 nM; EC50 (A375 cells): 376 nM; EC50 (Capan1 cells): 570 nM; EC50 (SU86.86 cells): 116 nM; EC50 (G361 cells): 70 nM
,"COc1cc(Nc2nccc(-c3[nH]c(C(C)(C)C)nc3-c3cnc(N)c(OC)n3)n2)ccn1 [Compound 9, 4-(4-(5-amino-6-methoxypyrazin-2-yl)-2-tert-butyl-1H-imidazol-5-yl)-N-(2-methoxypyridin-4-yl)pyrimidin-2-amine]",EC50 (PC3MM cells): 250 nM
0.6 nM,"COc1cc(-c2nc(-c3ccc(F)cc3)[nH]c2-c2ccncc2)cnc1N [Compound 66, 5-(2-(4-fluorophenyl)-5-(pyridin-4-yl)-1H-imidazol-4-yl)-3-methoxypyridin-2-amine]",EC50 (Malme3M cells): 816 nM; EC50 (A375 cells): 623 nM; EC50 (G361 cells): 1020 nM
0.1 nM,"COCC(=O)NCCNc1nccc(-c2nc(-c3ccc(F)cc3)[nH]c2-c2cnc(N)c(OC)c2)n1 [Compound 81, N-(2-(4-(5-(6-amino-5-methoxypyridin-3-yl)-2-(4-fluorophenyl)-1H-imidazol-4-yl)pyrimidin-2-ylamino)ethyl)-2-methoxyacetamide]",EC50 (Malme3M cells): 194 nM; EC50 (A375 cells): 547 nM; EC50 (Capan1 cells): 319 nM; EC50 (G361 cells): 305 nM
0.2 nM,"COCC(=O)NCCNc1nccc(-c2[nH]c(-c3ccc(C(F)(F)F)cc3)nc2-c2cnc(N)c(OC)c2)n1 [Compound 85, N-(2-(4-(4-(6-amino-5-methoxypyridin-3-yl)-2-(4-(trifluoromethyl)phenyl)-1H-imidazol-5-yl)pyrimidin-2-ylamino)ethyl)-2-methoxyacetamide]",EC50 (Capan1 cells): 163 nM; EC50 (SU86.86 cells): 111 nM
1 nM,"COc1cc(-c2[nH]c(-c3ccc(F)cc3F)nc2-c2ccncc2)cnc1N [Compound 106, 5-(2-(2,4-difluorophenyl)-4-(pyridin-4-yl)-1H-imidazol-5-yl)-3-methoxypyridin-2-amine]",EC50 (Capan1 cells): 674 nM; EC50 (SU86.86 cells): 118 nM
0.1 nM,"COCC(=O)N[C@@H](C)CNc1nccc(-c2[nH]c(-c3ccc(F)cc3)nc2-c2cnc(N)c(OC)c2)n1 [Compound 163, (S)-N-(1-(4-(4-(6-amino-5-methoxypyridin-3-yl)-2-(4-fluorophenyl)-1H-imidazol-5-yl)pyrimidin-2-ylamino)propan-2-yl)-2-methoxyacetamide]",EC50 (PC3MM cells): 83 nM; EC50 (Capan1 cells): 535 nM; EC50 (SU86.86 cells): 28 nM
0.2 nM,"COC(=O)N[C@@H](C)CNc1nccc(-c2nc(C(C)(C)C)[nH]c2-c2cnc3[nH]ccc3c2)n1 [Compound 262, (S)-methyl 1-(4-(2-tert-butyl-5-(1H-pyrrolo[2,3-b]pyridin-5-yl)-1H-imidazol-4-yl)pyrimidin-2-ylamino)propan-2-ylcarbamate]",
65 nM,"COC(=O)N[C@@H](C)CNc1nccc(-c2nc(C(C)(C)C)[nH]c2-c2cnc3[nH]cc(C(F)(F)F)c3c2)n1 [Compound 263, (S)-methyl 1-(4-(2-tert-butyl-5-(3-(trifluoromethyl)-1H-pyrrolo[2,3-b]pyridin-5-yl)-1H-imidazol-4-yl)pyrimidin-2-ylamino)propan-2-ylcarbamate]",
40 nM,"CCS(=O)(=O)N1CCN(c2nc(-c3ccncc3)c(-c3cnc(N)c(OC)c3)[nH]2)CC1 [Compound 264, 5-(2-(4-(ethylsulfonyl)piperazin-1-yl)-4-(pyridin-4-yl)-1H-imidazol-5-yl)-3-methoxypyridin-2-amine]",
0.01 nM,"COC(=O)N[C@@H](C)CNc1nccc(-c2[nH]c(C(C)(C)C)nc2-c2cnc(N)c(OC(F)F)c2)n1 [Compound 265, (S)-methyl 1-(4-(4-(6-amino-5-(difluoromethoxy)pyridin-3-yl)-2-tert-butyl-1H-imidazol-5-yl)pyrimidin-2-ylamino)propan-2-ylcarbamate]",
1 nM,"COc1cc(-c2nc(-c3ccccc3)[nH]c2-c2ccncc2)cnc1N [Example 1, 3-Methoxy-5-(2-phenyl-5-(pyridine-4-yl)-1H-imidazol-4-yl)pyridine-2-amine]",
0.4 nM,"COc1cc(-c2[nH]c(-c3ccc(C(F)(F)F)cc3)nc2-c2ccncc2)cnc1N [Example 2, 3-methoxy-5-(5-(pyridine-4-yl)-2-(4-(trifluoromethyl)phenyl)-1H-imidazol-4-yl)pyridin-2-amine]",
1.3 nM,"COc1cc(-c2nc(-c3ccccc3)[nH]c2-c2ccnc(NCCO)n2)cnc1N [Example 3, 2-(4-(4-(6-amino-5-methoxypyridin-3-yl)-2-phenyl-1H-imidazol-5-yl)pyrimidin-2-ylamino)ethanol]",
0.1 nM,"COCC(=O)N[C@@H](C)CNc1nccc(-c2[nH]c(-c3ccc(C(F)(F)F)cc3)nc2-c2cnc(N)c(OC)n2)n1 [Example 4, (S)—N-(1-(4-(4-(5-amino-6-methoxypyrazin-2-yl)-2-(4-(trifluoromethyl)phenyl)-1H-imidazol-5-yl)pyrimidin-2-ylamino)propan-2-yl)-2-methoxyacetamide]",
0.2 nM,"COCC(=O)N[C@@H](C)CNc1nccc(-c2[nH]c(-c3ccc(F)cc3)nc2-c2cnc(N)c(OC)n2)n1 [Example 5, (S)—N-(1-(4-(4-(5-amino-6-methoxylpyrazin-2-yl)-2-(4-fluorophenyl)-1H-imidazol-5-yl)pyrimidin-2-ylamino)propan-2-yl)-2-methoxyacetamide]",
0.3 nM,COc1cc(-c2nc(C(C)(C)C)[nH]c2-c2ccnc(NC[C@H](C)O)n2)cnc1N [Example 6],
0.3 nM,"COCC(=O)N[C@@H](C)CNc1nccc(-c2[nH]c(C(C)(C)C)nc2-c2cnc(N)c(OC)n2)n1 [Example 7, (S)—N-(1-(4-(4-(5-amino-6-methoxypyrazin-2-yl)-2-tert-butyl-1H-imidazol-5-yl)pyrimidin-2-ylamino)propan-2-yl)-2-methoxyacetamide]",
0.1 nM,"COC(=O)N[C@@H](C)CNc1nccc(-c2[nH]c(C(C)(C)C)nc2-c2cnc(N)c(OC)n2)n1 [Example 8, (S)-methyl 1-(4-(4-(5-amino-6-methoxypyrazin-2-yl)-2-tert-butyl-1H-imidazol-5-yl)pyrimidin-2-ylamino)propan-2-ylcarbamate]",
0.1 nM,"COc1cc(Nc2nccc(-c3[nH]c(C(C)(C)C)nc3-c3cnc(N)c(OC)n3)n2)ccn1 [Example 9, 4-(4-(5-amino-6-methoxypyrazin-2-yl)-2-tert-butyl-1H-imidazol-5-yl)-N-(2-methoxypyridin-4-yl)pyrimidin-2-amine]",
405 nM,"COc1cc(-c2[nH]c(-c3ccc(F)cc3)nc2C2CCOCC2)cnc1N [Example 10, 5-(2-(4-fluorophenyl)-5-(tetrahydro-2H-pyran-4-yl)-1H-imidazol-4-yl)-3-methoxypyridin-2-amine]",
36.5 nM,"COc1cc(-c2[nH]c(-c3ccc(F)cc3)nc2-c2cncs2)cnc1N [Example 11, 5-(2-(4-fluorophenyl)-5-(thiazol-5-yl)-1H-imidazol-4-yl)-3-methoxypyridin-2-amine]",
2 nM,"Fc1ccc(-c2nc(-c3ccncc3)c(-c3cnc4[nH]cc(Cl)c4c3)[nH]2)cc1 [Example 12, 3-chloro-5-(2-(4-fluorophenyl)-4-(pyridine-4-yl)-1H-imidazol-5-yl)-1H-pyrrolo[2,3-b]pyridine]",
0.5 nM,"COc1cc(-c2nc(-c3ccc(F)cc3)oc2-c2ccncc2)cnc1N [Example 13, 5-(2-(4-fluorophenyl)-5-(pyridin-4-yl)oxazol-4-yl)-3-methoxypyridin-2-amine]",
3 nM,COCC(=O)N[C@@H](C)CNc1nccc(-c2oc(-c3ccc(C(F)(F)F)cc3)nc2-c2cnc(N)c(OC)c2)n1 [Example 14],
1.9 nM,"COc1cc(-c2sc(-c3ccccc3)nc2-c2ccncc2)cnc1N [Example 15, 3-methoxy-5-(2-phenyl-4-(pyridine-4-yl)thiazol-5-yl)pyridine-2-amine]",
14.3 nM,"COc1cc(-c2nc(-c3ccc(F)cc3)sc2-c2ccncc2)cnc1N [Example 16, 5-(2-(4-fluorophenyl)-5-(pyridin-4-yl)thiazol-4-yl)-3-methoxypyridin-2-amine]",
